Laboratory results reported in PubChem BioAssay AID1963443 (Molecular Pharmacology Branch, DTP, NCI, 2024).

System: MDA-MB-231 complex spheroids, growth inhibition
Assay: Anticancer human tumor MDA-MB-231 cell line growth inhibition [Asc];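 further: spheroids exposed to compounds for 7 days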
Conditions: for IC50: curve of first compound; for viability, T/C: stronger effect = lower value
How it was run: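 Tumor cells were grown as multicellular spheroids with stromal HUVEC and mesenchymal stem cells and treated singly or in combination. Concentrations fell in half-log steps from the clinical Cmax, or from 10 microM where none was known.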

[1] = second compound 0.03 µM, first compound 0.0316 µM
[2] = second compound 0.03 µM, first compound 0.1 µM
[3] = second compound 0.03 µM, first compound 0.316 µM
[4] = second compound 0.03 µM, first compound 1 µM
[5] = second compound 0.03 µM, first compound 3.16 µM
[6] = second compound 0.03 µM, first compound 10 µM
[7] = second compound 0.0949 µM, first compound 0.0316 µM
[8] = second compound 0.0949 µM, first compound 0.1 µM
[9] = second compound 0.0949 µM, first compound 0.316 µM
[10] = second compound 0.0949 µM, first compound 1 µM
[11] = second compound 0.0949 µM, first compound 3.16 µM
[12] = second compound 0.0949 µM, first compound 10 µM
[13] = second compound 0.3 µM, first compound 0.0316 µM
[14] = second compound 0.3 µM, first compound 0.1 µM
[15] = second compound 0.3 µM, first compound 0.316 µM
[16] = second compound 0.3 µM, first compound 1 µM
[17] = second compound 0.3 µM, first compound 3.16 µM
[18] = second compound 0.3 µM, first compound 10 µM
[19] = second compound 0.949 µM, first compound 0.0316 µM
[20] = second compound 0.949 µM, first compound 0.1 µM
[21] = second compound 0.949 µM, first compound 0.316 µM
[22] = second compound 0.949 µM, first compound 1 µM
[23] = second compound 0.949 µM, first compound 3.16 µM
[24] = second compound 0.949 µM, first compound 10 µM
[25] = second compound 3 µM, first compound 0.0316 µM
[26] = second compound 3 µM, first compound 0.1 µM
[27] = second compound 3 µM, first compound 0.316 µM
[28] = second compound 3 µM, first compound 1 µM
[29] = second compound 3 µM, first compound 3.16 µM
[30] = second compound 3 µM, first compound 10 µM
[31] = second compound 0.03 µM, first compound 0.00316 µM
[32] = second compound 0.03 µM, first compound 0.01 µM
[33] = second compound 0.0949 µM, first compound 0.00316 µM
[34] = second compound 0.0949 µM, first compound 0.01 µM
[35] = second compound 0.3 µM, first compound 0.00316 µM
[36] = second compound 0.3 µM, first compound 0.01 µM
[37] = second compound 0.949 µM, first compound 0.00316 µM
[38] = second compound 0.949 µM, first compound 0.01 µM
[39] = second compound 3 µM, first compound 0.00316 µM
[40] = second compound 3 µM, first compound 0.01 µM

SMILES	IC50 (second compound 0.03 µM) [nM]	IC50 (second compound 0.0949 µM) [nM]	IC50 (second compound 0.3 µM) [nM]	IC50 (second compound 0.949 µM) [nM]	IC50 (second compound 3 µM) [nM]	viability, T/C [1] [%]	viability, T/C [2] [%]	viability, T/C [3] [%]	viability, T/C [4] [%]	viability, T/C [7] [%]	viability, T/C [8] [%]	viability, T/C [9] [%]	viability, T/C [10] [%]	viability, T/C [13] [%]	viability, T/C [14] [%]	viability, T/C [15] [%]	viability, T/C [16] [%]	viability, T/C [19] [%]	viability, T/C [20] [%]	viability, T/C [21] [%]	further results
C#Cc1c(F)ccc2cc(O)cc(-c3ncc4c(N5CC6CCC(C5)N6)nc(OCC56CCCN5CC(F)C6)nc4c3F)c12 (stereo not given) + CCN1C(C(=O)NC23CCC(C(=O)O)(CC2)CC3)C(c2cccc(Cl)c2F)C2(C(=O)Nc3cc(Cl)ccc32)C12CCCCC2	> 10000	8440	> 10000	> 10000	898	96.8	96.5	92.8	74.9	108	98.2	94.7	70.2	106	107	98.8	72.5	108	106	103	viability, T/C [5]: 63.8%; viability, T/C [6]: 55.1%; viability, T/C [11]: 59.3%; viability, T/C [12]: 48.1%; viability, T/C [17]: 59.3%; viability, T/C [18]: 48.5%; viability, T/C [22]: 66.2%; viability, T/C [23]: 61.5%; viability, T/C [24]: 45.8%; viability, T/C [25]: 96.7%; viability, T/C [26]: 90.5%; viability, T/C [27]: 68.8%; viability, T/C [28]: 47.4%; viability, T/C [29]: 43.5%; viability, T/C [30]: 36.4%
C=C(F)C(=O)N1CCN(c2nc(OCC3CCCN3C)nc3c2CCN(c2cccc4cccc(Cl)c24)C3)CC1CC#N (stereo not given) + CCN1C(C(=O)NC23CCC(C(=O)O)(CC2)CC3)C(c2cccc(Cl)c2F)C2(C(=O)Nc3cc(Cl)ccc32)C12CCCCC2	3310	3220	3090	3670	2370	102	101	88.1	90.2	100	108	97.9	97.1	112	107	110	105	112	116	114	viability, T/C [5]: 51.2%; viability, T/C [6]: 0.47%; viability, T/C [11]: 50.7%; viability, T/C [12]: 0.33%; viability, T/C [17]: 48.9%; viability, T/C [18]: 0.55%; viability, T/C [22]: 107%; viability, T/C [23]: 57.3%; viability, T/C [24]: 1.4%; viability, T/C [25]: 94.3%; viability, T/C [26]: 99.5%; viability, T/C [27]: 97.6%; viability, T/C [28]: 86.9%; viability, T/C [29]: 37.7%; viability, T/C [30]: 0.24%
CNC(C)C(=O)NC1CN(S(=O)(=O)c2cccc(S(=O)(=O)N3CCC4CCC(C(=O)NC(c5ccccc5)c5ccccc5)N4C(=O)C(NC(=O)C(C)NC)C3)c2)CCC2CCC(C(=O)NC(c3ccccc3)c3ccccc3)N2C1=O (stereo not given) + CCN1C(C(=O)NC23CCC(C(=O)O)(CC2)CC3)C(c2cccc(Cl)c2F)C2(C(=O)Nc3cc(Cl)ccc32)C12CCCCC2	< 3.16	< 3.16	< 3.16	< 3.16	< 3.16	1.57	1.22	1.14	0.97	1.66	1.78	1.27	0.74	2.08	2.17	0.84	1.46	2.37	0.77	0.84	viability, T/C [31]: 6.71%; viability, T/C [32]: 1.67%; viability, T/C [33]: 5.03%; viability, T/C [34]: 1.98%; viability, T/C [35]: 5.55%; viability, T/C [36]: 3.61%; viability, T/C [37]: 3.82%; viability, T/C [38]: 2.39%; viability, T/C [22]: 0.96%; viability, T/C [39]: 2.23%; viability, T/C [40]: 1%; viability, T/C [25]: 1.14%; viability, T/C [26]: 0.61%; viability, T/C [27]: 0.68%; viability, T/C [28]: 0.75%

Further lines, with some results ahead:

IC50 (second compound 0.03 µM) [nM]	IC50 (second compound 0.0949 µM) [nM]	IC50 (second compound 0.3 µM) [nM]	IC50 (second compound 0.949 µM) [nM]	IC50 (second compound 3 µM) [nM]	SMILES	viability, T/C [1] [%]	viability, T/C [2] [%]	viability, T/C [3] [%]	viability, T/C [4] [%]	viability, T/C [7] [%]	viability, T/C [8] [%]	viability, T/C [9] [%]	viability, T/C [10] [%]	viability, T/C [13] [%]	viability, T/C [14] [%]	viability, T/C [15] [%]	viability, T/C [16] [%]	viability, T/C [19] [%]	viability, T/C [20] [%]	viability, T/C [21] [%]	further results
> 10000	> 10000	> 10000	> 10000	> 10000	C=CC(=O)N1CCN(c2nc(=O)n(-c3c(C)ccnc3C(C)C)c3nc(-c4c(O)cccc4F)c(F)cc23)C(C)C1 (stereo not given) + CCN1C(C(=O)NC23CCC(C(=O)O)(CC2)CC3)C(c2cccc(Cl)c2F)C2(C(=O)Nc3cc(Cl)ccc32)C12CCCCC2	97.4	97.9	103	104	108	107	112	109	101	103	110	118	113	113	120	viability, T/C [5]: 102%; viability, T/C [6]: 106%; viability, T/C [11]: 116%; viability, T/C [12]: 120%; viability, T/C [17]: 121%; viability, T/C [18]: 108%; viability, T/C [22]: 118%; viability, T/C [23]: 129%; viability, T/C [24]: 121%; viability, T/C [25]: 96%; viability, T/C [26]: 107%; viability, T/C [27]: 109%; viability, T/C [28]: 114%; viability, T/C [29]: 115%; viability, T/C [30]: 112%
81.4	79.3	86.9	90.8	31.4	COc1c(OCCCN2CCOCC2)ccc2c3n(c(=NC(=O)c4cnc(N)nc4)nc12)CCN3 + CCN1C(C(=O)NC23CCC(C(=O)O)(CC2)CC3)C(c2cccc(Cl)c2F)C2(C(=O)Nc3cc(Cl)ccc32)C12CCCCC2	61.5	49.7	34.6	33.8	63.4	47.8	34.3	32.3	65.2	49.9	34.7	33.5	66.4	49	37	viability, T/C [31]: 87.7%; viability, T/C [32]: 81.5%; viability, T/C [33]: 102%; viability, T/C [34]: 78.7%; viability, T/C [35]: 99.3%; viability, T/C [36]: 88.2%; viability, T/C [37]: 100%; viability, T/C [38]: 85.9%; viability, T/C [22]: 34.1%; viability, T/C [39]: 83.3%; viability, T/C [40]: 67.6%; viability, T/C [25]: 50.1%; viability, T/C [26]: 39.3%; viability, T/C [27]: 31.2%; viability, T/C [28]: 34.1%
